# Key:
# Conditions in all cases: 72 h
# Calu-3 [1] = test: drug sensitivity score (DSS) for viability; higher = more toxic; extreme values may be limits of the assay
# Vero E6 [2] = test: as above
# HepG2 [3] = test: as above
# U2OS [4] = test: as above
# Caco-2 [5] = test: as above
# Calu-3 [6] = test: relative viability EC50 (midpoint between 100% and the lowest measured viability); higher = less toxic
# Vero E6 [7] = test: as above
# HepG2 [8] = test: as above
# U2OS [9] = test: as above
# Calu-3 [10] = test: cell viability relative to DMSO; higher = less toxic
# Vero E6 [11] = test: as above
# HepG2 [12] = test: as above
# U2OS [13] = test: as above
# Caco-2 [14] = test: as above
# Caco-2 [15] = test: relative viability EC50 (midpoint between 100% and the lowest measured viability); higher = less toxic
SMILES,drug sensitivity score (Calu-3 [1]),drug sensitivity score (Vero E6 [2]),drug sensitivity score (HepG2 [3]),drug sensitivity score (U2OS [4]),drug sensitivity score (Caco-2 [5]),relative viability EC50 (Calu-3 [6]) [µM],relative viability EC50 (Vero E6 [7]) [µM],relative viability EC50 (HepG2 [8]) [µM],relative viability EC50 (U2OS [9]) [µM],cell viability (Calu-3 [10]; 1 nM) [%],cell viability (Calu-3 [10]; 10 nM) [%],cell viability (Calu-3 [10]; 100 nM) [%],cell viability (Calu-3 [10]; 1000 nM) [%],cell viability (Calu-3 [10]; 10000 nM) [%],cell viability (Vero E6 [11]; 1 nM) [%],cell viability (Vero E6 [11]; 10 nM) [%],cell viability (Vero E6 [11]; 100 nM) [%],cell viability (Vero E6 [11]; 1000 nM) [%],cell viability (Vero E6 [11]; 10000 nM) [%],cell viability (HepG2 [12]; 1 nM) [%],cell viability (HepG2 [12]; 10 nM) [%],cell viability (HepG2 [12]; 100 nM) [%],cell viability (HepG2 [12]; 1000 nM) [%],cell viability (HepG2 [12]; 10000 nM) [%],cell viability (U2OS [13]; 1 nM) [%],cell viability (U2OS [13]; 10 nM) [%],cell viability (U2OS [13]; 100 nM) [%],cell viability (U2OS [13]; 1000 nM) [%],cell viability (U2OS [13]; 10000 nM) [%],cell viability (Caco-2 [14]; 1 nM) [%],cell viability (Caco-2 [14]; 10 nM) [%],cell viability (Caco-2 [14]; 100 nM) [%],cell viability (Caco-2 [14]; 1000 nM) [%],cell viability (Caco-2 [14]; 10000 nM) [%],relative viability EC50 (Caco-2 [15]) [µM]
CC(=C(CCOC(=O)C(C)C)SSC(CCOC(=O)C(C)C)=C(C)N(C=O)Cc1cnc(C)nc1N)N(C=O)Cc1cnc(C)nc1N (stereo in doubt) [sulbutiamine],0,0,0,0,1.2,> 10,> 10,> 10,> 10,109,111,112,105,89.1,100,84.3,98.7,89.2,95.1,101,84.5,112,95.3,97.4,101,106,105,101,92.8,90.8,105,70.2,98.5,81.8,
O=C(Cc1cccc(OC(F)(F)F)c1)Nc1ccc(CCCCc2nnc(NC(=O)Cc3ccccn3)s2)nn1 [CB-839],1.5,7.1,8.4,4.7,0,> 10,,,> 10,107,102,89.5,89.1,86.6,95.7,93.9,89.5,65.2,65.3,96.7,89.2,78.1,66.1,71.4,99.6,105,92.6,75.9,82,94.9,98.7,101,105,106,> 10
c1cc(OCCN2CCCCC2)cc(-c2n[nH]c3ccc(-c4nnc[nH]4)cc23)c1 [CC-401],0,0,2.9,0,0,> 10,> 10,,> 10,104,89.2,96,95.2,122,101,98,101,103,95.2,94.5,96.7,88.4,90.7,61.5,101,96.4,100,94.1,93.4,101,95.7,95.5,97.3,106,> 10
CC(C)[C@@H]1CC[C@@H](C)C[C@@H]1P(=O)(c1ccccc1)c1ccccc1 [DPO-1],0,0,,0,1.2,> 10,> 10,,> 10,95.9,98.4,96.7,93.7,94.1,112,105,110,96.6,105,,,,,,98.5,100,97.3,102,93.7,100,102,98.7,96.6,78,> 10
COc1oc(=O)c2cc(N)ccc2c1Cl [JLK-6],1.1,0,0.8,0,1.5,> 10,> 10,,> 10,103,105,106,94.9,80.9,108,104,100,104,93.8,96.6,113,103,105,73.1,99.7,98.2,99.1,99.4,91.7,99.2,94.6,96.1,95.4,76.6,> 10
Cn1cc(-c2cnc3ccc4ccc(CS(=O)(=O)NCc5ccccn5)cc4c(=O)c3c2)cn1 [MK-8033],0,0,3.2,0,1.2,> 10,> 10,,> 10,99.8,87.8,105,94.5,99.9,104,98.8,104,99.4,97.7,113,93.3,110,95.3,53.8,97.6,98.7,98.7,101,91.7,96.4,95.6,91.8,97.9,75.1,> 10
CCCCCCCC/C=C\CCCCCCCC(=O)NCCc1ccc(O)c(O)c1 [OLDA],0,2,2,4.9,3.2,> 10,,,2.58,105,98.6,97.9,103,104,106,101,99,99.2,61.7,98.1,107,100,103,56.3,101,99.1,98.3,94.6,25.9,98.1,90.4,96.7,92,61.9,
CCCCCOc1ccc(-c2ccc(-c3ccc(C(=O)N[C@H]4C[C@@H](O)[C@@H](O)NC(=O)[C@@H]5[C@@H](O)[C@@H](C)CN5C(=O)[C@H]([C@@H](C)O)NC(=O)[C@H]([C@H](O)[C@@H](O)c5ccc(O)cc5)NC(=O)[C@@H]5C[C@@H](O)CN5C(=O)[C@H]([C@@H](C)O)NC4=O)cc3)cc2)cc1 [anidulafungin],0.5,0,1.9,0,1.7,> 10,> 10,,> 10,99.6,90.1,96.6,83.2,90.5,94.8,102,104,101,100,97.4,104,97.6,97.1,68.7,94.8,95.6,96.8,98.1,94,110,106,105,105,59.2,
Nc1ccc(F)cc1NC(=O)c1ccc(CNC(=O)/C=C/c2cccnc2)cc1 [chidamide],10.7,1.4,7.4,8.4,4.1,0.365,,1.17,1.56,113,101,89.4,49.1,35.1,95.6,99.7,95.4,100,67.5,97.6,105,91.4,69.4,28.1,101,103,104,77.6,9.8,95.3,104,97.1,85.1,55.9,
CCCCCCCCCCCCCCCC(=O)O[C@@H]1[C@@H](O)[C@@H](O)[C@@H]([C@H](NC(=O)[C@@H]2C[C@@H](CCC)CN2C)[C@H](C)Cl)O[C@@H]1SC [clindamycin-palmitate],0,0,,0,0,> 10,> 10,,> 10,99.9,102,103,96.7,104,95.5,96.6,93.5,97,103,,,,,,94.2,99.7,97.7,101,106,95,94.7,90.2,101,95.4,> 10
CN(C)CC[C@@](O)(c1ccccc1)c1ccccc1Cl [clofedanol],0,0,0,0,1.8,> 10,> 10,> 10,> 10,101,106,102,101,96.4,104,96.5,99.5,88.9,101,93.7,97.1,101,94.2,113,99.2,98.1,92.7,102,100,93.4,89.6,103,95.8,72.5,
C[C@]12C[C@H](O)[C@H]3[C@@H](CCC4=CC(=O)CC[C@@]43C)[C@@H]1CC[C@@H]2C(=O)CO [corticosterone],0,0,,0,0,> 10,> 10,,> 10,101,101,96.4,97.2,93.7,96.1,91.6,101,90.6,87.8,,,,,,94.9,100,92.3,96.1,97.9,92.8,114,114,101,91.5,> 10
NCCS [cysteamine],0,0,,0,0,> 10,> 10,,> 10,87.7,100,98.3,99.1,102,106,101,99.8,94.8,99.9,,,,,,102,102,95.1,99.7,97.4,102,108,104,100,93.8,> 10
CN(C)NC(=O)CCC(=O)O [daminozide],,0,0,0,0,,> 10,> 10,> 10,,,,,,94.6,98.2,97.1,98.3,103,103,96.4,102,102,103,97.8,97.8,95,101,101,93.5,96.3,96.5,98.3,100,> 10

# From the supplement of paper PMC13380429
